Results as given in US9133142B2, “Salts or co-crystals of 3-(3-dimethylamino-1-ethyl-2-methyl-propyl)-phenol” (Gruenenthal GmbH, priority 2010, dated 2015).
Structures can show the parent of a compound that is named as a salt.

How the values were obtained:
[1] = Thermogravimetric analysis (TGA) of salts or cocrystals; type: physicochemical; details: for TGA no weight loss up to: nitrogen flow, heating rate of 10° C./min
Procedure: Thermogravimetric investigations were performed with a Mettler-Toledo TGA/SDTA851.
Unless otherwise specified, the samples were weighed in a aluminium crucible and measured in nitrogen flow. Generally TGA investigations were performed in a temperature range of 25 to about 200° C. or resp. 350° C. with a heating rate of 10° C./min.

[2] = cited from earlier work
[3] = biological target: recombinantly produced μ-opioid receptor (Homo sapiens, UniProt P35372); details: relative to morphine; cited from earlier work
[4] = clinical studies; cited from earlier work

recombinantly produced μ-opioid receptor, sequence (P35372 whole entry): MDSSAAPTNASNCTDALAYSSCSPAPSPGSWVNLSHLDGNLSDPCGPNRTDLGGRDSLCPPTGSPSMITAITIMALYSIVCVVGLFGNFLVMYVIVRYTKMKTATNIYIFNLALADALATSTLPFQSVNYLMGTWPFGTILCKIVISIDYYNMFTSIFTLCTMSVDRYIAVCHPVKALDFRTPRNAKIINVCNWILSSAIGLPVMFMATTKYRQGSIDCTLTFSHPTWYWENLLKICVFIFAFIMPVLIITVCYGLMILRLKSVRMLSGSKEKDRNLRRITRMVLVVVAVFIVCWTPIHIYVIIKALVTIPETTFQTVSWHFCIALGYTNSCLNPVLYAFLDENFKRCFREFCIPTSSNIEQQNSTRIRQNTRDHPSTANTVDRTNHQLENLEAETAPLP

## CC[C@@H](c1cccc(O)c1)[C@@H](C)CN(C)C.CC[C@@H](c1cccc(O)c1)[C@@H](C)CN(C)C.O=C(O[C@H](C(=O)O)[C@H](OC(=O)c1ccccc1)C(=O)O)c1ccccc1 [Example A-1, Hemi Salt or Hemi Cocrystal of (2S,3S)-Di-benzoyl Tartaric Acid and Tapentadol]
[1]
  TGA no weight loss up to: to 140 °C
[1]; listed as A-2
  TGA no weight loss up to: to 160 °C
[1]; listed as A-3
  TGA no weight loss up to: to 160 °C

## CC[C@@H](c1cccc(O)c1)[C@@H](C)CN(C)C.O=C(O)CCCCCCCCC(=O)O [Example B-1, Salt or Cocrystal of Sebacid Acid and Tapentadol]
[1]
  TGA no weight loss up to: to 140 °C
[1]; listed as B-2
  TGA no weight loss up to: to 105 °C
[1]; listed as B-3
  TGA no weight loss up to: to 145 °C

## CC[C@@H](c1cccc(O)c1)[C@@H](C)CN(C)C.O=C(O)c1ccc2ccccc2c1O [Example C-1, Salt or Cocrystal of 1-hydroxy-2-naphthoic Acid and Tapentadol]
[1]
  TGA no weight loss up to: to 125 °C
[1]; listed as C-2
  TGA no weight loss up to: to 130 °C

## CCC(c1cccc(O)c1)C(C)CN(C)C.O=C(O)CC(=O)O (centres unmarked) [Example E-1, Salt or Cocrystal of Malonic Acid and Tapentadol]
[1]
  TGA no weight loss up to: to 115 °C

## CC[C@@H](c1cccc(O)c1)[C@@H](C)CN(C)C [Example F-1, Salt or Cocrystal of Hydrobromic Acid and Tapentadol]
[1]
  TGA no weight loss up to: to 195 °C

## CC[C@@H](c1cccc(O)c1)[C@@H](C)CN(C)C.O=C(O)c1cccnc1 [Example G-1, Salt or Cocrystal of Nicotinic Acid and Tapentadol]
[1]; 28° C.-171° C.
  TGA weight loss: −6.4%

## CC[C@@H](c1cccc(O)c1)[C@@H](C)CN(C)C.O=C(O)c1cccnc1 [Example G-2, Salt or Cocrystal of Nicotinic Acid and Tapentadol]
[1]
  TGA no weight loss up to: to 135 °C
[1]; listed as G-3
  TGA no weight loss up to: to 150 °C

## CC[C@@H](c1cccc(O)c1)[C@@H](C)CN(C)C.CC[C@@H](c1cccc(O)c1)[C@@H](C)CN(C)C.O=C(O)/C=C/C(=O)O [Example I-1, Hemi Salt or Hemi Cocrystal of Fumaric Acid and Tapentadol]
[1]
  TGA no weight loss up to: to 131 °C
[1]; listed as I-2
  TGA no weight loss up to: to 130 °C
[1]; listed as I-3
  TGA no weight loss up to: to 130 °C

## CCC(c1cccc(O)c1)C(C)CN(C)C.O=C1NS(=O)(=O)c2ccccc21 (centres unmarked) [Example J-1, Salt or Cocrystal of Saccharin and Tapentadol]
[1]
  TGA no weight loss up to: to 105 °C

## CC[C@@H](c1cccc(O)c1)[C@@H](C)CN(C)C.O=C(O)c1cccnc1 [Example b2-1b, Salt or Cocrystal of Tapentadol and Nicotinic Acid]
[1]; range: 27 to 171° C.
  weight loss (TGA): −5.9%

## CC[C@@H](c1cccc(O)c1)[C@@H](C)CN(C)C.O=C(O)c1cccnc1 [Example b2-1c, Salt or Cocrystal of Tapentadol and Nicotinic Acid]
[1]; 29.76-135.97° C.
  TG weight change: −0.19%
[1]; range: 25 to 148° C.
  weight loss (TGA): < 0.3%

## CC[C@@H](c1cccc(O)c1)[C@@H](C)CN(C)C [hydrogen chloride salt of 3-(3-dimethylamino-1-ethyl-2-methyl-propyl)-phenol]
[2]
  solubility in water and aqueous media: high solubility

## CC[C@@H](c1cccc(O)c1)[C@@H](C)CN(C)C [tapentadol, (1R,2R)-3-(3-dimethylamino-1-ethyl-2-methyl-propyl)-phenol]
[3]
  affinity to the recombinantly produced μ-opioid receptor, times less than that of morphine: 18 times
[4]
  pain-alleviating action relative to morphine: two to three times less

## Salt or Cocrystal of Embonic Acid and Tapentadol [Example D-1]
[1]; 90° C.-157° C.
  TGA weight loss: −7.1%

## Salt or Cocrystal of Embonic Acid and Tapentadol [Example D-2]
[1]
  TGA no weight loss up to: to 170 °C
[1]; listed as D-3
  TGA no weight loss up to: to 160 °C

## Salt or Cocrystal of Nitric Acid and Tapentadol [Example H-1]
[1]
  TGA no weight loss up to: to 170 °C

## Salt or Cocrystal of Tapentadol and Embonic Acid [b1-4-3]
[1]; range 31 to 171° C.
  weight loss (TGA): < 0.1%

## Salt or Cocrystal of Tapentadol and Embonic Acid [b1-4-4]
[1]; range 53 to 167° C.
  weight loss (TGA): −5.7%
